One test addresses SREBP-2 (Homo sapiens (Human), UniProt Q12772). The test can be described thus: In vitro assay SREBP-2: PathHunter U2OS SREBP-2 Nuclear Translocation Cell Line, U18666A-stimulated. The test is classed as cell-based. To be noted: PathHunter U2OS SREBP-2 nuclear translocation cells, U18666A 10 μM, overnight (16 hours).
For another test, the target named is LXRβ (Homo sapiens (Human), UniProt P55055). The test can be described thus: In vitro assay LXRβ: PathHunter NHR CHO cells, LXRβ / Steroid Receptor Co-activator Peptide enzyme fragment complementation. The class given is cell-based. To be noted: PathHunter NHR CHO cells, full-length human LXRβ and SRCP, chemiluminescent signal; read-out: LXRβ PPI. The essentials: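 Co-activator recruitment measured by chemiluminescence after signal generation. The CHO line carries full-length human LXRβ tagged with ProLink and an SRCP–enzyme acceptor fusion in the nucleus; cells sat overnight at 37° C before testing, in charcoal-dextran filtered serum medium with 1% final vehicle.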
Chain of LXRβ (P55055 whole entry, the tested form may be a part): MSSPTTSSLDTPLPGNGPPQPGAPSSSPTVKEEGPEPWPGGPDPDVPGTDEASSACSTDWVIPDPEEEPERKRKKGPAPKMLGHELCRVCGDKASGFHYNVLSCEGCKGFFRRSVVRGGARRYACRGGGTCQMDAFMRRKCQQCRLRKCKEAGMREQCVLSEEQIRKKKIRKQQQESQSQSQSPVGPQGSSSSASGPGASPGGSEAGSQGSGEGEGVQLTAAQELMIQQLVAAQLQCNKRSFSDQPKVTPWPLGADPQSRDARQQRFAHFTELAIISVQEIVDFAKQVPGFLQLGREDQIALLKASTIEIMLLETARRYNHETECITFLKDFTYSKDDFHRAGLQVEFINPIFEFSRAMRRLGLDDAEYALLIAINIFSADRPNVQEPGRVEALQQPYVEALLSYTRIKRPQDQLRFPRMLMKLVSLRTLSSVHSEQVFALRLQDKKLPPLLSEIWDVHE

As usually defined, the IC50 is the concentration that gives 50% inhibition. As to `CCc1cccnc1CC[C@@H](C)[C@H]1CC[C@H]2[C@@H]3CC=C4C[C@@H](O)CC[C@]4(C)[C@H]3CC[C@]12C` [Example 187, (3S,8S,9S,10R,13R,14S,17R)-17-((R)-4-(3-ethylpyridin-2-yl)butan-2-yl)-10,13-dimethyl-2,3,4,7,8,9,10,11,12,13,14,15,16,17-tetradecahydro-1H-cyclopenta[a]phenanthren-3-ol], on SREBP-2, the IC50 was less than 250 nM. In addition, on LXRβ, the EC50 is 250 to 1000 nM.

Compound `Cc1ncncc1CC[C@@H](C)[C@H]1CC[C@H]2[C@@H]3CC=C4C[C@@H](O)CC[C@]4(C)[C@H]3CC[C@]12C` [Example 188, (3S,8S,9S,10R,13R,14S,17R)-10,13-dimethyl-17-((R)-4-(4-methylpyrimidin-5-yl)butan-2-yl)-2,3,4,7,8,9,10,11,12,13,14,15,16,17-tetradecahydro-1H-cyclopenta[a]phenanthren-3-ol] registered an IC50 against SREBP-2 of less than 250 nM. The EC50 at LXRβ is 1000 to 10000 nM.

Compound `Cc1cc(CC[C@@H](C)[C@H]2CC[C@H]3[C@@H]4CC=C5C[C@@H](O)CC[C@]5(C)[C@H]4CC[C@]23C)ncn1` [Example 189, (1R,3aS,3bS,7S,9aR,9bS,11aR)-9a,11a-dimethyl-1-[(2R)-4-(6-methylpyrimidin-4-yl)butan-2-yl]-1H,2H,3H,3aH,3bH,4H,6H,7H,8H,9H,9aH,9bH,10H,11H,11aH-cyclopenta[a]phenanthren-7-ol] yielded an IC50 against SREBP-2 of less than 250 nM. For the same compound, the EC50 on LXRβ fell in the range of 1000 to 10000 nM.

`Cc1nccc(CC[C@@H](C)[C@H]2CC[C@H]3[C@@H]4CC=C5C[C@@H](O)CC[C@]5(C)[C@H]4CC[C@]23C)n1` [Example 190, (3S,8S,9S,10R,13R,14S,17R)-10,13-dimethyl-17-((R)-4-(2-methylpyrimidin-4-yl)butan-2-yl)-2,3,4,7,8,9,10,11,12,13,14,15,16,17-tetradecahydro-1H-cyclopenta[a]phenanthren-3-ol] came in with a concentration for half-maximal inhibition (IC50) against SREBP-2 of 250 to 1000 nM. On LXRβ, the EC50 was 1000 to 10000 nM.

On to `Cc1ccnc(CC[C@@H](C)[C@H]2CC[C@H]3[C@@H]4CC=C5C[C@@H](O)CC[C@]5(C)[C@H]4CC[C@]23C)n1` [Example 191, (3S,8S,9S,10R,13R,14S,17R)-10,13-dimethyl-17-((R)-4-(4-methylpyrimidin-2-yl)butan-2-yl)-2,3,4,7,8,9,10,11,12,13,14,15,16,17-tetradecahydro-1H-cyclopenta[a]phenanthren-3-ol], for which the IC50 on SREBP-2 was less than 250 nM. Moreover, at LXRβ, the EC50 was 250 to 1000 nM.

`Cc1cnc(CC[C@@H](C)[C@H]2CC[C@H]3[C@@H]4CC=C5C[C@@H](O)CC[C@]5(C)[C@H]4CC[C@]23C)nc1` [Example 192, (3S,8S,9S,10R,13R,14S,17R)-10,13-dimethyl-17-((R)-4-(5-methylpyrimidin-2-yl)butan-2-yl)-2,3,4,7,8,9,10,11,12,13,14,15,16,17-tetradecahydro-1H-cyclopenta[a]phenanthren-3-ol] had an IC50 against SREBP-2 of less than 250 nM. In addition, the EC50 on LXRβ was more than 10000 nM.

As for `C[C@H](CCC(=O)N1CCC(O)(C2CC2)CC1)[C@H]1CC[C@H]2[C@@H]3CC=C4C[C@@H](O)CC[C@]4(C)[C@H]3CC[C@]12C` [Example 193, (R)-1-(4-cyclopropyl-4-hydroxypiperidin-1-yl)-4-((3S,8S,9S,10R,13R,14S,17R)-3-hydroxy-10,13-dimethyl-2,3,4,7,8,9,10,11,12,13,14,15,16,17-tetradecahydro-1H-cyclopenta[a]phenanthren-17-yl)pentan-1-one], the IC50 against SREBP-2 is less than 250 nM. On LXRβ, the EC50 is less than 250 nM.

On SREBP-2, `C[C@H](CCC(=O)N1CC=C(C2CC2)CC1)[C@H]1CC[C@H]2[C@@H]3CC=C4C[C@@H](O)CC[C@]4(C)[C@H]3CC[C@]12C` [Example 193A, (R)-1-(4-cyclopropyl-3,6-dihydropyridin-1(2H)-yl)-4-((3S,8S,9S,10R,13R,14S,17R)-3-hydroxy-10,13-dimethyl-2,3,4,7,8,9,10,11,12,13,14,15,16,17-tetradecahydro-1H-cyclopenta[a]phenanthren-17-yl)pentan-1-one] displayed an IC50 of less than 250 nM. Besides, the EC50 on LXRβ lay within 250 to 1000 nM.

Turning to `CCCN(CCC)C(=O)C(=O)O[C@@H](C)[C@H]1CC[C@H]2[C@@H]3CC=C4C[C@@H](O)CC[C@]4(C)[C@H]3CC[C@]12C` [Example 196, (S)-1-((3S,8S,9S,10R,13S,14S,17S)-3-hydroxy-10,13-dimethyl-2,3,4,7,8,9,10,11,12,13,14,15,16,17-tetradecahydro-1H-cyclopenta[a]phenanthren-17-yl)ethyl 2-(dipropylamino)-2-oxoacetate], on SREBP-2, the IC50 is less than 250 nM. For the same compound, the EC50 at LXRβ lay within 1000 to 10000 nM.

In the case of `CCN(C(=O)C(=O)O[C@@H](C)[C@H]1CC[C@H]2[C@@H]3CC=C4C[C@@H](O)CC[C@]4(C)[C@H]3CC[C@]12C)C(C)C` [Example 197, (S)-1-((3S,8S,9S,10R,13S,14S,17S)-3-hydroxy-10,13-dimethyl-2,3,4,7,8,9,10,11,12,13,14,15,16,17-tetradecahydro-1H-cyclopenta[a]phenanthren-17-yl)ethyl 2-(ethyl(isopropyl)amino)-2-oxoacetate], at SREBP-2, the IC50 was less than 250 nM. In addition, on LXRβ, the EC50 lay in the range of 250 to 1000 nM.

In the case of `C[C@H](OC(=O)C(=O)N1CCCC1)[C@H]1CC[C@H]2[C@@H]3CC=C4C[C@@H](O)CC[C@]4(C)[C@H]3CC[C@]12C` [Example 198, (S)-1-((3S,8S,9S,10R,13S,14S,17S)-3-hydroxy-10,13-dimethyl-2,3,4,7,8,9,10,11,12,13,14,15,16,17-tetradecahydro-1H-cyclopenta[a]phenanthren-17-yl)ethyl 2-oxo-2-(pyrrolidin-1-yl)acetate], the IC50 at SREBP-2 was less than 250 nM. Besides, the EC50 at LXRβ lay in the range of 1000 to 10000 nM.

In turn, `C[C@H](OC(=O)C(=O)N1CCCCC1)[C@H]1CC[C@H]2[C@@H]3CC=C4C[C@@H](O)CC[C@]4(C)[C@H]3CC[C@]12C` [Example 199, (1S)-1-[(1S,3aS,3bS,7S,9aR,9bS,11aS)-7-hydroxy-9a,11a-dimethyl-1H,2H,3H,3aH,3bH,4H,6H,7H,8H,9H,9aH,9bH,10H,11H,11aH-cyclopenta[a]phenanthren-1-yl]ethyl2-oxo-2-(piperidin-1-yl)acetate] came in with an IC50 against SREBP-2 of less than 250 nM. Besides, the EC50 on LXRβ fell in the range of 250 to 1000 nM.

Compound `CCC1(O)CCN(C(=O)C(=O)O[C@@H](C)[C@H]2CC[C@H]3[C@@H]4CC=C5C[C@@H](O)CC[C@]5(C)[C@H]4CC[C@]23C)CC1` [Example 200, (S)-1-((3S,8S,9S,10R,13S,14S,17S)-3-hydroxy-10,13-dimethyl-2,3,4,7,8,9,10,11,12,13,14,15,16,17-tetradecahydro-1H-cyclopenta[a]phenanthren-17-yl)ethyl 2-(4-ethyl-4-hydroxypiperidin-1-yl)-2-oxoacetate] showed an IC50 against SREBP-2 of less than 250 nM. Also, the EC50 on LXRβ fell in the range of 1000 to 10000 nM.

On SREBP-2, `CC[C@@]1(OC)CCCN(C(=O)CC[C@@H](C)[C@H]2CC[C@H]3[C@@H]4CC=C5C[C@@H](O)CC[C@]5(C)[C@H]4CC[C@]23C)C1` [Example 201, (R)-1-((R)-3-ethyl-3-methoxypiperidin-1-yl)-4-((3S,8S,9S,10R,13R,14S,17R)-3-hydroxy-10,13-dimethyl-2,3,4,7,8,9,10,11,12,13,14,15,16,17-tetradecahydro-1H-cyclopenta[a]phenanthren-17-yl)pentan-1-one] came in with an IC50 of less than 250 nM. Moreover, at LXRβ, the EC50 fell in the range of 1000 to 10000 nM.

As to `COc1nccc(N2CCN(C(=O)CC[C@@H](C)[C@H]3CC[C@H]4[C@@H]5CC=C6C[C@@H](O)CC[C@]6(C)[C@H]5CC[C@]34C)CC2)n1` [Example 202, (R)-4-((3S,8S,9S,10R,13R,14S,17R)-3-hydroxy-10,13-dimethyl-2,3,4,7,8,9,10,11,12,13,14,15,16,17-tetradecahydro-1H-cyclopenta[a]phenanthren-17-yl)-1-(4-(2-methoxypyrimidin-4-yl)piperazin-1-yl) pentan-1-one], the IC50 at SREBP-2 was less than 250 nM. Besides, the EC50 at LXRβ is more than 10000 nM.

On to `COc1cc(N2CCN(C(=O)CC[C@@H](C)[C@H]3CC[C@H]4[C@@H]5CC=C6C[C@@H](O)CC[C@]6(C)[C@H]5CC[C@]34C)CC2)ncn1` [Example 203, (4R)-4-[(1R,3aS,3bS,7S,9aR,9bS,11aR)-7-hydroxy-9a,11a-dimethyl-1H,2H,3H,3aH,3bH,4H,6H,7H,8H,9H,9aH,9bH,10H,11H,11aH-cyclopenta[a]phenanthren-1-yl]-1-[4-(6-methoxypyrimidin-4-yl)piperazin-1-yl]pentan-1-one], for which, on SREBP-2, the IC50 was less than 250 nM. On LXRβ, the EC50 was more than 10000 nM.

On SREBP-2, `COc1cncnc1N1CCN(C(=O)CC[C@@H](C)[C@H]2CC[C@H]3[C@@H]4CC=C5C[C@@H](O)CC[C@]5(C)[C@H]4CC[C@]23C)CC1` [Example 204, (4R)-4-[(1R,3aS,3bS,7S,9aR,9bS,11aR)-7-hydroxy-9a,11a-dimethyl-1H,2H,3H,3aH,3bH,4H,6H,7H,8H,9H,9aH,9bH,10H,11H,11aH-cyclopenta[a]phenanthren-1-yl]-1-[4-(5-methoxypyrimidin-4-yl)piperazin-1-yl]pentan-1-one] registered a 50% inhibitory concentration (IC50) of less than 250 nM. Also, the EC50 at LXRβ was more than 10000 nM.

In turn, `Cc1nccc(N2CCN(C(=O)CC[C@@H](C)[C@H]3CC[C@H]4[C@@H]5CC=C6C[C@@H](O)CC[C@]6(C)[C@H]5CC[C@]34C)CC2)n1` [Example 205, (R)-4-((3S,8S,9S,10R,13R,14S,17R)-3-hydroxy-10,13-dimethyl-2,3,4,7,8,9,10,11,12,13,14,15,16,17-tetradecahydro-1H-cyclopenta[a]phenanthren-17-yl)-1-(4-(2-methylpyrimidin-4-yl)piperazin-1-yl)pentan-1-one] displayed an IC50 at SREBP-2 of less than 250 nM. Further, the EC50 at LXRβ was more than 10000 nM.
